Values of other authors, collected in US6022703A, “Expression of DNA sequences derived from nocardioform microorganisms” (Genzyme Corporation, priority 1993, dated 2000).

Test system: Nocardioform cholesterol oxidase
Conditions: at 25°

In the case of `CC(C)CCC[C@@H](C)[C@H]1CC[C@H]2[C@@H]3CC=C4C[C@@H](O)CC[C@]4(C)[C@H]3CC[C@]12C` [cholesterol], the Km is listed as 14 µM.
